Source: patent US20110146678A1, “PROCESS FOR IMPROVING CRYSTALLINITY” (priority 2008, published 2011)
Counter-ions that a name gives are not always drawn.

Key:
Format in all cases: physicochemical
[1] = Respirable fraction / FPF by Next Generation Impactor (general summary); conditions: particles of the present invention vs prior art
Source text: The particle size distribution of the aerosol formulations according to the invention may be measured by conventional techniques, for example by using a Next Generation Impactor (NGI) with pre-separator for example by cascade impaction or by the “Twin Impinger” analytical process. As used herein reference to the “Twin Impinger” assay means “Determination of the deposition of the emitted dose in pressurised inhalations using apparatus A” as defined in British Pharmacopoeia 1988, pages A204-207, Appendix XVII C. Such methods involve filling the pre-separator with HPLC mobile phase and the cups of the NGI cups were coated with 1% v/v silicone oil in hexane to eliminate particle bounce. […] The mass of drug deposited on each part of the NGI can then be determined by HPLC. The FPD determined represents the mass of drug collected on stages 3-8 of the NGI. The FPF emitted dose is also determined. The aerosolisation efficiency as determined by percentage fine particle fraction (% FPF) or respirable fraction is also assessed.
Such techniques enable the “respirable fraction” of the aerosol formulations to be calculated. As used herein reference to “respirable fraction” means the amount of active ingredient collected in the lower chamber in the NGI per actuation expressed as a percentage of the total amount of active ingredient delivered per actuation using the method described above. […]

[2] = pMDI formulation, particle fraction distribution on NGI stages; conditions: stage 5 cut-off 1.36 μm
Description: Both samples were produced in a similar manner to sample 2 of Example 2. Sample 1 was prepared from atomization of a 3% solution of fluticasone propionate in 20% dichloromethane in methanol (3 g in 100 ml) and Sample 5 was prepared from atomization of 3% solution in acetone (3 g in 100 ml). […] The FPF values were 11.80% and 13.80% on stage 5 for samples 5 and 1 respectively compared with 6.20% for micronized material.

[3] = Aerosolisation efficiency of binary DPI formulations (0.4% w/w FP in lactose), NGI via Rotahaler; conditions: optimal particles
Description: The aerosolization efficiency of samples 2, 3 and 4 of engineered FP were evaluated using binary formulations containing 0.4% w/w FP.
Each binary formulation contained 0.016 g FP and 3.984 g lactose (ML001, DMV-Fonterra, Vehgel, Netherlands) and was prepared by geometric mixing. Following this, the blend was subsequently prepared using a Turbula T2F (Willy A Bachofen A G, Basel, Switzerland) at 46 rpm for 45 minutes.
Following content uniformity testing, 12.5±1 mg of each blend was loaded into size 3 hydroxypropylmethyl cellulose capsules (HPMC, Shionogi Qualicaps S A, Basingstoke, UK). The capsules were stored at 44% RH for 24 h prior to in vitro performance testing.
Testing was performed using a Next Generation Impactor (NGI) with pre-separator, which was connected to a vacuum pump (GE Motors). Prior to testing, the pre-separator was filled with 15 ml of mobile phase and the cups of the NGI cups were coated with 1% v/v silicone oil in hexane to eliminate particle bounce.
For each experiment, four individual capsules of the same formulation were discharged into the NGI at 60 Lpm for 4 s via a Rotahaler (GSK, Ware, UK) DPI device. Additionally, blisters from a Flixotide Diskus (GSK, Ware, UK) were emptied and loaded into size 3 HPMS capsules and discharged into a NGI at 60 Lpm1 for 4 s via a Rotahaler. Following aerosolization, the NGI apparatus was dismantled and the inhaler, capsules and each part of the NGI was washed down into known volumes of HPLC mobile phase.
The mass of drug deposited on each part of the NGI was determined by HPLC. This protocol was repeated three times for each blend, following which, the mass median aerodynamic diameter (MMAD), geometric standard deviation (GSD), fine particle dose (FPD) and fine particle fraction of the emitted dose (FPFED) were determined. The FPD represented the mass of drug that was collected on stages 3-8 of the NGI.

Row | SMILES | increase in FPF compared to the prior art [1] | FPF on stage 5 of the NGI [2] [%] | FPF greater than micronized/milled [3] [%] | FPF greater than precipitated material [3]
1 | CC(Cc1ccc(O)cc1)NCC(O)c1cc(O)cc(O)c1 (stereo not drawn) [Fenoterol hydrobromide] | 30-50% |  |  | 
2 | CCC(=O)O[C@]1(C(=O)SCF)[C@H](C)C[C@H]2[C@@H]3C[C@H](F)C4=CC(=O)C=C[C@]4(C)[C@@]3(F)[C@@H](O)C[C@@]21C [Sample 1, fluticasone propionate] |  | 13.80 |  | 
3 | CCC(=O)O[C@]1(C(=O)SCF)[C@H](C)C[C@H]2[C@@H]3C[C@H](F)C4=CC(=O)C=C[C@]4(C)[C@@]3(F)[C@@H](O)C[C@@]21C [Sample 5, fluticasone propionate] |  | 11.80 |  | 
4 | CCC(=O)O[C@]1(C(=O)SCF)[C@H](C)C[C@H]2[C@@H]3C[C@H](F)C4=CC(=O)C=C[C@]4(C)[C@@]3(F)[C@@H](O)C[C@@]21C [fluticasone propionate] | 50-60% |  | 54 | over 200%
